{"source": "patent US7879861B2", "about": "“Combi-molecules having EGFR and DNA targeting properties” (priority 2005, dated 2011)", "key": {"MDA-MB-468 cells": {"test_system": "MDA-MB-468 cells", "test": "Annexin V binding (apoptosis), flow cytometry", "assay_type": "cell-based, human", "protocol": "Annexin V Binding: Cells were grown in 6-well plates until confluence and then incubated with the compounds for 24 h, 48 and 72 h. The cells were then harvested, washed twice with PBS, and centrifuged. Cells (10^5) were treated with annexin V-FITC and propidium iodide (PI) using the Apoptosis Detection Kit (BD Bioscience Pharmingen, USA) and the supplier's protocol. Annexin V-FITC and PI binding were analyzed by flow cytometry. Data were collected using logarithmic amplification of both the FL1 (FITC) and FL2 (PI) channels. Quadrant analysis of co-ordinate dot plots was performed with CellQuest software. Unstained cells were used to adjust the photomultiplier voltage and for compensation setting adjustment in order to eliminate spectral overlap between the FL1 and FL2 signals."}, "MAPK (Erk1, 2)": {"test_system": "MAPK (Erk1, 2)", "test": "EGF-stimulated MAPK phosphorylation in MDA-MB-468 cells (Western blot)", "assay_type": "cell-based, human", "conditions": "at concentrations as low as 1 μM", "protocol": "Autophosphorylation assay: Inhibition of receptor autophosphorylation in viable cells was determined by anti-phosphotyrosine Western blots as previously described (19). […] Equal amounts of cell lysates were analyzed by Western blot using anti-phosphotyrosine antibodies. Membranes were stripped of anti-phosphotyrosine and reprobed with anti-EGFR or anti-erbB2 antibodies (NeoMarkers, Fremont, Calif.). To study whether an inhibition is reversible or not, duplicate sets of cells were treated with 2 μM of designated compound for 2 h. One set of cells was then stimulated with EGF. The other set of cells was washed free of the compound with warmed serum-free media, incubated for 2 h, washed again, incubated for another 2 h, and incubated for a further 4 h after a subsequent wash. This set of cells was then stimulated with EGF. Western blot was performed as previously described. […] The membrane was incubated with anti-phosphorylated MAPK (Erk1,2) or anti-Erk 1,2 antibodies (Cell Signaling Technology Inc., Beverly, Mass.)."}}}
{"smiles": "ClCCNc1ccc2ncnc(Nc3cccc(Br)c3)c2c1", "note": "[ZR2002]", "values": [{"measurement": "concentration at which detectable levels of apoptosis start", "setting": "MDA-MB-468 cells", "value": 5, "unit": "µM"}, {"measurement": "inhibition of EGF-stimulated phosphorylation of MAPK", "setting": "MAPK (Erk1, 2)", "value": 100, "unit": "%"}]}
